The target of this assay is BRAF^V600E protein (Homo sapiens, UniProt P15056, V600E). The assay can be described thus: HiBiT cellular BRAF V600E degradation assay. The assay is classed as cell-based. The note with it: 24 h incubation; for DC50: A375.10 cells (HiBiT tag knocked in at N-terminal of BRAF V600E), concentration at which 50% of total cellular BRAF V600E is degraded; for Emax: A375.10 cells, Emax = amount of residual protein remaining in the cell after compound treatment, read-out: HiBit 24 h Emax.
Chain of BRAF^V600E protein (P15056 whole entry V600E): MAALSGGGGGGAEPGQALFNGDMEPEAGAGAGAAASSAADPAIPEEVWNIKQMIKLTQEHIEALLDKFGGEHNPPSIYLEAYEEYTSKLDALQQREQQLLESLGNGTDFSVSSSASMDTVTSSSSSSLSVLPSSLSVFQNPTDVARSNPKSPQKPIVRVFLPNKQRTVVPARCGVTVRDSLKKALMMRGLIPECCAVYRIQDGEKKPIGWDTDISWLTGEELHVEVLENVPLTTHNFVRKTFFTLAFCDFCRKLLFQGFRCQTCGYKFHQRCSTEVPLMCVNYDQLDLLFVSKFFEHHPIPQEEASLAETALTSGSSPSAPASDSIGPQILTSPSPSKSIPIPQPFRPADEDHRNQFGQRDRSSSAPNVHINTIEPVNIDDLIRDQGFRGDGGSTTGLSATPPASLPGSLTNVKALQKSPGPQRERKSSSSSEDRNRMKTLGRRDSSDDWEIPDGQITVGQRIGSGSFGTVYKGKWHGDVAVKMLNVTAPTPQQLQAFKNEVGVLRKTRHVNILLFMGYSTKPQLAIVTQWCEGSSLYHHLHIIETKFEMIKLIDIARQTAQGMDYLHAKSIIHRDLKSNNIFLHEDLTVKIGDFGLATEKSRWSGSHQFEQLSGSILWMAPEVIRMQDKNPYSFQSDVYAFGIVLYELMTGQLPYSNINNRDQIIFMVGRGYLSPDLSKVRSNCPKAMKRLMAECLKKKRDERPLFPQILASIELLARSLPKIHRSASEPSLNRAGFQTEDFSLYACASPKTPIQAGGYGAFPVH

One may read the DC50 as the concentration at which degradation of the target reaches its halfway point. Low values mean degradation at low concentration, high ones degradation only at high concentration. One may read the Emax as the size of the effect at its maximum, as opposed to the concentration needed.

With `CCN(C)S(=O)(=O)Nc1cccc(C(=O)c2c[nH]c3ncc(-c4cnc(N5CCN(C(=O)CC6(O)CCN(c7ccc(NC8CCC(=O)NC8=O)cc7Cl)CC6)CC5)nc4)cc23)c1F` (stereo not shown) [Example 103, 5-[2-[4-[2-[1-[2-chloro-4-[(2,6-dioxo-3-piperidyl)amino]phenyl]-4-hydroxy-4-piperidyl]acetyl]piperazin-1-yl]pyrimidin-5-yl]-3-[3-[[ethyl(methyl)sulfamoyl]amino]-2-fluoro-benzoyl]-1H-pyrrolo[2,3-b]pyridine], the half-maximal degradation concentration (DC50) was determined as 3.04 nM and the Emax was 8.98%.

As to `CCN(C)S(=O)(=O)Nc1cccc(C(=O)c2c[nH]c3ncc(-c4cnc(N5CCN(C(=O)CC6(O)CCN(c7ncc(NC8CCC(=O)NC8=O)cc7F)CC6)CC5)nc4)cc23)c1F` (stereo not shown) [Example 104, 5-[2-[4-[2-[1-[5-[(2,6-dioxo-3-piperidyl)amino]-3-fluoro-2-pyridyl]-4-hydroxy-4-piperidyl]acetyl]piperazin-1-yl]pyrimidin-5-yl]-3-[3-[[ethyl(methyl)sulfamoyl]amino]-2-fluoro-benzoyl]-1H-pyrrolo[2,3-b]pyridine], the half-maximal degradation concentration (DC50) is 3.37 nM and the maximal response (Emax) was 10.8%.

For the molecule `CCN(C)S(=O)(=O)Nc1cccc(C(=O)c2c[nH]c3ncc(-c4cnc(N5CCN(C(=O)CC6(O)CCN(c7ccc(NC8CCC(=O)NC8=O)cn7)CC6)CC5)nc4)cc23)c1F` (stereo not shown) [Example 105, 5-[2-[4-[2-[1-[5-[(2,6-dioxo-3-piperidyl)amino]-2-pyridyl]-4-hydroxy-4-piperidyl]acetyl]piperazin-1-yl]pyrimidin-5-yl]-3-[3-[[ethyl(methyl)sulfamoyl]amino]-2-fluoro-benzoyl]-1H-pyrrolo[2,3-b]pyridine], half-maximal degradation (DC50) was put at 42.2 nM and the maximum response (Emax) is 36.9%.

In the case of `CCN(C)S(=O)(=O)Nc1cccc(C(=O)c2c[nH]c3ncc(-c4cnc(N5CCN(C(=O)CC6CCN(c7ccc(NC8CCC(=O)NC8=O)cc7C(F)(F)F)CC6)CC5)nc4)cc23)c1F` (stereo not shown) [Example 106, 5-[2-[4-[2-[1-[4-[(2,6-dioxo-3-piperidyl)amino]-2-(trifluoromethyl)phenyl]-4-piperidyl]acetyl]piperazin-1-yl]pyrimidin-5-yl]-3-[3-[[ethyl(methyl)sulfamoyl]amino]-2-fluoro-benzoyl]-1H-pyrrolo[2,3-b]pyridine], the DC50 came out at 34.8 nM and the Emax is 11.5%.

With `CCN(C)S(=O)(=O)Nc1cccc(C(=O)c2c[nH]c3ncc(-c4ccc(N5CCN(C(=O)CN6CCC(c7ccc(NC8CCC(=O)NC8=O)cc7)CC6)CC5)nc4)cc23)c1F` (stereo not shown) [Example 107, 5-[6-[4-[2-[4-[4-[(2,6-dioxo-3-piperidyl)amino]phenyl]-1-piperidyl]acetyl]piperazin-1-yl]-3-pyridyl]-3-[3-[[ethyl(methyl)sulfamoyl]amino]-2-fluoro-benzoyl]-1H-pyrrolo[2,3-b]pyridine], it took 3.08 nM to reach half-maximal degradation (DC50) and the maximal response (Emax) was 7.97%.

For the molecule `CCN(C)S(=O)(=O)Nc1cccc(C(=O)c2c[nH]c3ncc(-c4ccc(N5CCN(C(=O)CN6CCC(c7ccc(OC8CCC(=O)NC8=O)cc7)CC6)CC5)nc4)cc23)c1F` (stereo not shown) [Example 108, 5-[6-[4-[2-[4-[4-[(2,6-dioxo-3-piperidyl)oxy]phenyl]-1-piperidyl]acetyl]piperazin-1-yl]-3-pyridyl]-3-[3-[[ethyl(methyl)sulfamoyl]amino]-2-fluoro-benzoyl]-1H-pyrrolo[2,3-b]pyridine], half-maximal degradation (DC50) was put at 5.6 nM and the Emax was 11.4%.

Take `CCN(C)S(=O)(=O)Nc1cccc(C(=O)c2c[nH]c3ncc(-c4ccc(N5CCN(C(=O)CC6(O)CCN(c7ccc(NC8CCC(=O)NC8=O)cc7)CC6)CC5)nc4)cc23)c1F` (stereo not shown) [Example 109, 5-[6-[4-[2-[1-[4-[(2,6-dioxo-3-piperidyl)amino]phenyl]-4-hydroxy-4-piperidyl]acetyl]piperazin-1-yl]-3-pyridyl]-3-[3-[[ethyl(methyl)sulfamoyl]amino]-2-fluoro-benzoyl]-1H-pyrrolo[2,3-b]pyridine]: half-maximal degradation (DC50) was put at 5.49 nM and the Emax turned out to be 10.8%.

On to `CCN(C)S(=O)(=O)Nc1cccc(C(=O)c2c[nH]c3ncc(-c4ccc(N5CCN(C(=O)CN6CCC(c7ccc(NC8CCC(=O)NC8=O)cc7)C(F)(F)C6)CC5)nc4)cc23)c1F` (stereo not shown) [Example 110, 5-[6-[4-[2-[4-[4-[(2,6-dioxo-3-piperidyl)amino]phenyl]-3,3-difluoro-1-piperidyl]acetyl]piperazin-1-yl]-3-pyridyl]-3-[3-[[ethyl(methyl)sulfamoyl]amino]-2-fluoro-benzoyl]-1H-pyrrolo[2,3-b]pyridine], for which it took 4.47 nM to reach half-maximal degradation (DC50) and the Emax is 7.75%.

Regarding `CCN(C)S(=O)(=O)Nc1cccc(C(=O)c2c[nH]c3ncc(-c4ccc(N5CCN(C(=O)CC6CCN(c7ccc(NC8CCC(=O)NC8=O)cc7F)CC6)CC5)nc4)cc23)c1F` (stereo not shown) [Example 111, 5-[6-[4-[2-[1-[4-[(2,6-dioxo-3-piperidyl)amino]-2-fluoro-phenyl]-4-piperidyl]acetyl]piperazin-1-yl]-3-pyridyl]-3-[3-[[ethyl(methyl)sulfamoyl]amino]-2-fluoro-benzoyl]-1H-pyrrolo[2,3-b]pyridine], the DC50 turned out to be 9.66 nM and the maximal effect (Emax) worked out at 15.6%.

Consider `CCN(C)S(=O)(=O)Nc1cccc(C(=O)c2c[nH]c3ncc(-c4ccc(N5CCN(C(=O)CC6(O)CCN(c7ccc(NC8CCC(=O)NC8=O)cc7F)CC6)CC5)nc4)cc23)c1F` (stereo not shown) [Example 112, 5-[6-[4-[2-[1-[4-[(2,6-dioxo-3-piperidyl)amino]-2-fluoro-phenyl]-4-hydroxy-4-piperidyl]acetyl]piperazin-1-yl]-3-pyridyl]-3-[3-[[ethyl(methyl)sulfamoyl]amino]-2-fluoro-benzoyl]-1H-pyrrolo[2,3-b]pyridine], for which it took 6.46 nM to reach half-maximal degradation (DC50) and the maximum response (Emax) amounted to 10.8%.

As to `CCN(C)S(=O)(=O)Nc1cccc(C(=O)c2c[nH]c3ncc(-c4ccc(N5CCN(C(=O)CC6(O)CCN(c7ccc(NC8CCC(=O)NC8=O)cn7)CC6)CC5)nc4)cc23)c1F` (stereo not shown) [Example 113, 5-[6-[4-[2-[1-[5-[(2,6-dioxo-3-piperidyl)amino]-2-pyridyl]-4-hydroxy-4-piperidyl]acetyl]piperazin-1-yl]-3-pyridyl]-3-[3-[[ethyl(methyl)sulfamoyl]amino]-2-fluoro-benzoyl]-1H-pyrrolo[2,3-b]pyridine], the half-maximal degradation concentration (DC50) is 26.3 nM and the Emax was determined as 27.7%.

For the molecule `CCN(C)S(=O)(=O)Nc1cccc(C(=O)c2c[nH]c3ncc(-c4ccc(N5CCN(C(=O)CC6(O)CCN(c7ccc(NC8CCC(=O)NC8=O)cc7F)C6)CC5)nc4)cc23)c1F` (stereo not shown) [Example 114, 5-[6-[4-[2-[1-[4-[(2,6-dioxo-3-piperidyl)amino]-2-fluoro-phenyl]-3-hydroxy-pyrrolidin-3-yl]acetyl]piperazin-1-yl]-3-pyridyl]-3-[3-[[ethyl(methyl)sulfamoyl]amino]-2-fluoro-benzoyl]-1H-pyrrolo[2,3-b]pyridine], half-maximal degradation (DC50) was put at 2.29 nM and the Emax is 10.9%.

As for `CCN(C)S(=O)(=O)Nc1cccc(C(=O)c2c[nH]c3ncc(-c4ccc(N5CCN(C(=O)CC6(O)CCN(c7ncc(NC8CCC(=O)NC8=O)cc7F)CC6)CC5)nc4)cc23)c1F` (stereo not shown) [Example 115, 5-[6-[4-[2-[1-[5-[(2,6-dioxo-3-piperidyl)amino]-3-fluoro-2-pyridyl]-4-hydroxy-4-piperidyl]acetyl]piperazin-1-yl]-3-pyridyl]-3-[3-[[ethyl(methyl)sulfamoyl]amino]-2-fluoro-benzoyl]-1H-pyrrolo[2,3-b]pyridine], the 50% degradation concentration (DC50) was found to be 5.13 nM and the Emax turned out to be 12.2%.

As for `CCN(C)S(=O)(=O)Nc1cccc(C(=O)c2c[nH]c3ncc(-c4ccc(N5CCN(C(=O)CC6(O)CCN(c7ccc(NC8CCC(=O)NC8=O)cc7)CC6)CC5)cc4)cc23)c1F` (stereo not shown) [Example 116, 5-[4-[4-[2-[1-[4-[(2,6-dioxo-3-piperidyl)amino]phenyl]-4-hydroxy-4-piperidyl]acetyl]piperazin-1-yl]phenyl]-3-[3-[[ethyl(methyl)sulfamoyl]amino]-2-fluoro-benzoyl]-1H-pyrrolo[2,3-b]pyridine], the 50% degradation concentration (DC50) turned out to be 5.32 nM and the Emax amounted to 13.4%.

Take `CCN(C)S(=O)(=O)Nc1cccc(C(=O)c2c[nH]c3ncc(-c4ccc(N5CCN(C(=O)CC6(O)CCN(c7ccc(NC8CCC(=O)NC8=O)cn7)CC6)CC5)cc4)cc23)c1F` (stereo not shown) [Example 117, 5-[4-[4-[2-[1-[5-[(2,6-dioxo-3-piperidyl)amino]-2-pyridyl]-4-hydroxy-4-piperidyl]acetyl]piperazin-1-yl]phenyl]-3-[3-[[ethyl(methyl)sulfamoyl]amino]-2-fluoro-benzoyl]-1H-pyrrolo[2,3-b]pyridine]: half-maximal degradation (DC50) was put at 23.1 nM and the maximal effect (Emax) stood at 25.3%.

With `CCN(C)S(=O)(=O)Nc1cccc(C(=O)c2c[nH]c3ncc(-c4ccc(N5CCN(C(=O)CC6(O)CCN(c7ccc(NC8CCC(=O)NC8=O)cc7F)C6)CC5)cc4)cc23)c1F` (stereo not shown) [Example 118, 5-[4-[4-[2-[1-[4-[(2,6-dioxo-3-piperidyl)amino]-2-fluoro-phenyl]-3-hydroxy-pyrrolidin-3-yl]acetyl]piperazin-1-yl]phenyl]-3-[3-[[ethyl(methyl)sulfamoyl]amino]-2-fluoro-benzoyl]-1H-pyrrolo[2,3-b]pyridine], the DC50 amounted to 27.2 nM and the maximal effect (Emax) was found to be 13.4%.

Regarding `CCN(C)S(=O)(=O)Nc1cccc(C(=O)c2c[nH]c3ncc(-c4ccc(N5CCN(C(=O)CC6(O)CCN(c7ccc(NC8CCC(=O)NC8=O)cc7F)CC6)CC5)cc4)cc23)c1F` (stereo not shown) [Example 119, 5-[4-[4-[2-[1-[4-[(2,6-dioxo-3-piperidyl)amino]-2-fluoro-phenyl]-4-hydroxy-4-piperidyl]acetyl]piperazin-1-yl]phenyl]-3-[3-[[ethyl(methyl)sulfamoyl]amino]-2-fluoro-benzoyl]-1H-pyrrolo[2,3-b]pyridine], the DC50 worked out at 8.71 nM and the maximal effect (Emax) was found to be 10.5%.

The record behind these values is US12559492B2, “BRAF degraders” (C4 Therapeutics, Inc., priority 2020, dated 2026).
